Read-outs that look alike come from different tables or passages of the source.

The target in experiment [1] is T1, EGFR T790M/L858R Ba/F3 cell line (Homo sapiens, UniProt P00533, T790M/L858R, cells depend on it).
T1 construct: "The constructs were shuttled into the retroviral vector JP1540 using the BD Creator™ System (BD Biosciences)
As to the kind of experiment: Ba/F3 cell proliferation (MTS assay), EGFR T790M/L858R. The class given is cell-based, murine. The method, then:
All cell lines were maintained in RPM 1640 (Cellgro; Mediatech Inc., Herndon, Calif.) supplemented with 10% FBS 100 units/mL penicillin, 100 units/mL streptomycin, and 2 mM glutamine. […] The EGFR 1941R mutation was introduced via site directed mutagenesis using the Quick Change Site-Directed Mutagenesis kit (Stratagene: La Jolla, Calif.) according to the manufacturer's instructions. All constructs were confirmed by DNA sequencing. The constructs were shuttled into the retroviral vector JP1540 using the BD Creator™ System (BD Biosciences). Ba/F3 cells were infected with retrovirus and according to standard protocols, as described previously (Zhou 2009). Stable clones were obtained by selection in puromycin (2 μg/ml).
Growth and inhibition of growth was assessed by MTS assay and was performed according to previously established methods (Zhou 2009). The MTS assay is a colorimetric method for determining the number of viable cells that is based on the bioreduction of MTS by cells to a formazan product that is soluble in cell culture medium and can be detected spectrophotometrically. […] All experimental points were set up in six wells and all experiments were repeated at least three times. […] The curves were fitted using anon-linear regression model with a sigmoidal dose response.

Experiment [2] concerns the target T2, recombinant EGFR T790M/L858R kinase (Homo sapiens, UniProt P00533, L858R/T790M).
T2 construct: Constructs spanning residues 696-1022 of the human EGFR; GST (cleaved yes); made in house; host or cells: Sf9 insect cells
As to the kind of experiment: HTRF-based EGFR biochemical assay. As for the experimental part:
EGFR kinase proteins were purified by glutathione-affinity chromatography followed by size-exclusion chromatography after cleavage with TEV or thrombin to remove the GST fusion partner following established procedures. (Yun 2008; Yun 2007).
EGFR biochemical assays were carried out using a homogeneous time-resolved fluorescence (HTRF) assay as described previously. The reaction mixtures contained 1 μM biotin-Lck-peptide substrate, wild type or mutant EGFR enzyme in reaction buffer (50 mM HEPES pH 7.1, 10 mM MgCl2, 0.01% BSA. 1 mM TCEP and 0.1 mM Na3VO4) at a final volume of 10 μL. […] All reactions were carried out at room temperature in white ProxiPlate™ 384-well Plus plates (PerkinElmer) and were quenched with 5 μL of 0.2 M EDTA at 60 min. Five μL per well of the detection reagent containing 2.5 ng PT66K (Cis-bio) and 0.05 μg SAXL (Prozyme) were added, and the plates were then incubated at room temperature for 1 hour and read with an EnVision plate reader.
In general terms: Time-resolved FRET reads energy transfer from a long-lived donor to a nearby acceptor.

[3] abbreviates: absence of cetuximab, read-out: Ba/F3 cellular activity (EC50) T790M/L858R.
Setting [4] is: read-out: Ba/F3 cellular activity (EC50) T790M/L858R + Cetuximab (1 μg/mL), presence of 1 μg/mL cetuximab.

T2 sequence (P00533 696-1022 T790M/L858R): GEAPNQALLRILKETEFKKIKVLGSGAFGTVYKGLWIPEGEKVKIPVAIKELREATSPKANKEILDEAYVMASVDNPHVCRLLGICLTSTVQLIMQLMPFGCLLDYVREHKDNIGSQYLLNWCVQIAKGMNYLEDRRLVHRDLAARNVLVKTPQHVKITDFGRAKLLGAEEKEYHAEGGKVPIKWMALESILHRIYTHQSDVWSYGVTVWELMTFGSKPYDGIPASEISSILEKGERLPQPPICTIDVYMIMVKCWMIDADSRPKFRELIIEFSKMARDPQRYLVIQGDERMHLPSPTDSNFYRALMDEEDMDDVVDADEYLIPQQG
T1 sequence (P00533 whole entry T790M/L858R): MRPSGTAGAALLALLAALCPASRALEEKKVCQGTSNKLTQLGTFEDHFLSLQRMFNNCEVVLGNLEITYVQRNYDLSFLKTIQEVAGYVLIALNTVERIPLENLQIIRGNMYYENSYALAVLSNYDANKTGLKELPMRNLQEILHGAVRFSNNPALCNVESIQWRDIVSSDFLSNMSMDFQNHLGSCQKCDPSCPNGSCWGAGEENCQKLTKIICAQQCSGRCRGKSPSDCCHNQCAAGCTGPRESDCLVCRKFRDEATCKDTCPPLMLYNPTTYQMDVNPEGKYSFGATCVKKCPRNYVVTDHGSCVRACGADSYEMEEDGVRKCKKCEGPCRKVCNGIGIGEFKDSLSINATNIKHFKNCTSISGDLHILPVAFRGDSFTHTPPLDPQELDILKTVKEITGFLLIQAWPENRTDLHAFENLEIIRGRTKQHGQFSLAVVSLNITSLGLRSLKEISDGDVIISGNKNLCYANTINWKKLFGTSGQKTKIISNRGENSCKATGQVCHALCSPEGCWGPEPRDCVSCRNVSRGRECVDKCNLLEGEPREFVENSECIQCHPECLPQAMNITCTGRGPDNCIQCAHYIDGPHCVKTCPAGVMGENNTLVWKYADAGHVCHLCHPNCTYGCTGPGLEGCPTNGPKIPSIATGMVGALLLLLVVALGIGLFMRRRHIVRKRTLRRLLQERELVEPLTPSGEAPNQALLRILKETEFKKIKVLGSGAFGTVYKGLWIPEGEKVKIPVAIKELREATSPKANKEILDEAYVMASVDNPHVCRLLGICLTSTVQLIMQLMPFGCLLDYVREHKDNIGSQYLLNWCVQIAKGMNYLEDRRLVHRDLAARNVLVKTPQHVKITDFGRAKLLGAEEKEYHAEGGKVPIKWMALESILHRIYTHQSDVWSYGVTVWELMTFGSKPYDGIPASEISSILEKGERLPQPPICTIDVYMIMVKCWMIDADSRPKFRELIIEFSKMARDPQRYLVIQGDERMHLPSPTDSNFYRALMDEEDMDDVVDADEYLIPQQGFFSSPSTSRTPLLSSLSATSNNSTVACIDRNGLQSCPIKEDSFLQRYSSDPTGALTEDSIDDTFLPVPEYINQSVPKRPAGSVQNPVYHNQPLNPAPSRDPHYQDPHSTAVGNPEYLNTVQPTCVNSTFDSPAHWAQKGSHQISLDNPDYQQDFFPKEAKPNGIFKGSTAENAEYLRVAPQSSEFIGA

In general, IC50 refers to the midpoint of a concentration-inhibition curve. Regarding `O=C1c2cc(-c3ccc(N4CCNCC4)cc3)ccc2Nc2ncc(F)cc2N1Cc1ccccc1` [Compound I-12], the EC50 in experiment [1] (setting [3]) and in experiment [1] (setting [4]) was not below 750 nM each time. In addition, the IC50 in experiment [2] is not below 750 nM.

On to `O=C1c2cc(-c3ccc(N4CCNCC4)cc3)ccc2Nc2ccncc2N1Cc1ccccc1` [Compound I-13], for which the EC50 in experiment [1] (setting [3]) and in experiment [1] (setting [4]) was not below 750 nM throughout. Moreover, in experiment [2], the IC50 is not below 750 nM.

Turning to `Nc1ccc2c(c1)N(Cc1ccccc1)C(=O)c1cc(-c3ccc4[nH]ccc4c3)ccc1N2` [Compound I-14], the EC50 in experiment [1] (setting [3]) and in experiment [1] (setting [4]) was not below 750 nM throughout. The IC50 in experiment [2] is not below 750 nM.

For `CC(=O)Nc1ccc2c(c1)N(Cc1ccccc1)C(=O)c1cc(-c3ccc4[nH]ccc4c3)ccc1N2` [Compound I-15], the EC50 in experiment [1] (setting [3]) and in experiment [1] (setting [4]) was not below 750 nM in each case. The IC50 in experiment [2] was not below 750 nM.

Consider `CCC(=O)Nc1ccc2c(c1)N(Cc1ccccc1)C(=O)c1cc(-c3ccc4[nH]ccc4c3)ccc1N2` [Compound I-16], for which the EC50 in experiment [1] (setting [3]) and in experiment [1] (setting [4]) was 250 to 500 nM each time. For the same compound, the IC50 in experiment [2] is not below 750 nM.

`CN1CCC(c2ccc(-c3ccc4c(c3)C(=O)N(Cc3ccccc3)c3cc(F)ccc3N4)cc2)CC1` [Compound I-17]: the IC50 in experiment [2] is less than 250 nM.

`O=C1c2cc(-c3ccc(N4CCNCC4)cc3)ccc2Nc2ccc(F)cc2N1Cc1cccc2cc[nH]c12` [Compound I-18]: the EC50 in experiment [1] (setting [3]) is not below 750 nM; in experiment [1] (setting [4]), less than 250 nM. In experiment [2], the IC50 is less than 250 nM.

As for `O=C1c2cc(-c3ccc(N4CCNCC4)cc3)ccc2Nc2ccc(F)cc2N1Cc1ccc2cc[nH]c2c1` [Compound I-19], the EC50 in experiment [1] (setting [3]) and in experiment [1] (setting [4]) was not below 750 nM each time. Further, the IC50 in experiment [2] is not below 750 nM.

With `CN1CCN(c2ccc(Oc3ccc4c(c3)C(=O)N(Cc3ccccc3)c3cc(F)ccc3N4)cc2)CC1` [Compound I-20, 10-benzyl-8-fluoro-2-(4-(4-methylpiperazin-1-yl)phenoxy)-5,10-dihydro-11H-dibenzo[b,e][1,4]diazepin-11-one], the figures for the EC50 in experiment [1] (setting [3]) and in experiment [1] (setting [4]) were not below 750 nM and 250 to 500 nM, respectively. Further, the half-maximal inhibitory concentration (IC50) in experiment [2] is less than 250 nM.

With `CN1CCC(n2cc(-c3ccc4c(c3)C(=O)N(Cc3cccc(F)c3)c3cc(F)ccc3N4)cn2)CC1` [Compound I-22], in experiment [2], the IC50 is less than 250 nM.

With `CN1CCC(n2cc(-c3ccc4c(c3)C(=O)N(Cc3cccc(Cl)c3)c3cc(F)ccc3N4)cn2)CC1` [Compound I-23], the EC50 in experiment [1] (setting [3]) and in experiment [1] (setting [4]) was not below 750 nM throughout. For the same compound, in experiment [2], the IC50 is less than 250 nM.

With `CN1CCC(n2cc(-c3ccc4c(c3)C(=O)N(Cc3cc(F)cc(F)c3)c3cc(F)ccc3N4)cn2)CC1` [Compound I-24], the EC50 in experiment [1] (setting [3]) and in experiment [1] (setting [4]) was not below 750 nM in each case. Moreover, the IC50 in experiment [2] is less than 250 nM.

Regarding `CN1CCC(n2cc(-c3ccc4c(c3)C(=O)N(Cc3cccc5cc[nH]c35)c3cc(F)ccc3N4)cn2)CC1` [Compound I-25], the EC50 in experiment [1] (setting [3]) and in experiment [1] (setting [4]) was not below 750 nM in each case. Also, the IC50 in experiment [2] was less than 250 nM.

With `O=C1c2cc(Br)ccc2Nc2ccc(F)cc2N1Cc1ccccc1` [I-a], the EC50 in experiment [1] (setting [3]) is not below 750 nM; in experiment [1] (setting [4]), 250 to 500 nM. Further, the IC50 in experiment [2] is less than 250 nM.

These data come from patent US20200375999A1, “PHARMACEUTICAL COMBINATIONS OF EGFR INHIBITORS AND METHODS OF USE THEREOF” (DANA-FARBER CANCER INSTITUTE, INC., priority 2018, published 2020).
